Results taken from patent US9643951B2, “Compound having somatostatin receptor agonistic activity and pharmaceutical use thereof” (ONO PHARMACEUTICAL CO., LTD., priority 2013, dated 2017).
pEC50: −log10 of the molar value.

Experiments:
human SSTR2 = molecular target: T1, human SSTR2 (Homo sapiens, UniProt P30874); test: Evaluation of SSTR2 agonistic activity using cells expressing human SSTR2 (suppression of forskolin-stimulated cAMP production, SSTR2-CHO-K1); assay type: cell-based
T1 construct: Myc; expressed in transfected cells
T1 sequence (P30874 whole entry): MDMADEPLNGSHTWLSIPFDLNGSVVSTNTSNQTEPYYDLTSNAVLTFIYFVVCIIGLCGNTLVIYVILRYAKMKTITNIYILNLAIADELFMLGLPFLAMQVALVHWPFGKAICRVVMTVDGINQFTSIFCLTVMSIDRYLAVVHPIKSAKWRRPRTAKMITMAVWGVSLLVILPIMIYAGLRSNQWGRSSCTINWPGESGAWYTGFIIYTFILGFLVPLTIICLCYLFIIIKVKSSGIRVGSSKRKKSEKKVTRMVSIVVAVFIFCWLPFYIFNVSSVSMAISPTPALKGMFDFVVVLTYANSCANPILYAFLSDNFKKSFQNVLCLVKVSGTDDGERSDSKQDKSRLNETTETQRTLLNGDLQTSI
Experimental: Evaluation of SSTR2 Agonistic Activity Using Cells Expressing Human SSTR2
(1) Isolation of Human SSTR2 Gene
Human brain cDNA was purchased from Ambion (catalogue No.: 7962; Lot No.: 040200121). PCR primers, hSSTR2_F1_XhoI: 5′-[…]-3′ (SEQ ID NO: 1) and hSSTR2_R1_EcoRI: 5′-[…]-3′ (SEQ ID NO: 2) were designed on the basis of the sequence GenBank NM_001050.
PCR reaction (95° C. for 2 min.→[98° C. for 10 sec., 60° C. for 30 sec. and 68° C. for 90 sec.]×30 cycles) was carried out using the human brain cDNA as a template and using KOD-plus-(TOYOBO Co., Ltd.). The amplified PCR product was subjected to 1% agarose gel electrophoresis, purified using QIAquick Gel Extraction Kit (QIAGEN) and digested with restriction enzymes XhoI and EcoRI. The digested fragments were ligated to an expression vector (pIRESneo-Myc) using the DNA Ligation Kit Ver. 2 (Takara) and used for transformation of E. coli DH5a. The plasmid pIRESneo-Myc/hSSTR2 was prepared and the DNA sequence thereof was confirmed.
(2) Culture of CHO-K1 Cells
CHO-K1 (−) was cultured in Ham's F-12 medium (containing foetal bovine serum (10%), penicillin (100 U/mL) and streptomycin (0.1 mg/mL)). The transduced cells were cultured in the same medium supplemented with Geneticin (1 mg/mL).
(3) Transduction of CHO-K1 Cells
CHO-K1(−) cells were transduced with the plasmid pIRESneo-Myc/hSSTR2 using Lipofectamine 2000 (Invitrogen). After 48 hours, selection was carried out by replacing the medium with the one containing 1 mg/mL of Geneticin to establish a stable overexpressing cell line (SSTR2-CHO-K1).
(4) Evaluation of SSTR2 Agonistic Activity
The human SSTR2 agonistic activity of a test compound was evaluated according to the following procedures by using a suppression activity of intracellular cyclic AMP (cAMP) production by forskolin stimulation as an index. SSTR2-CHO-K1 cells suspended in Ham's F-12 medium (containing foetal bovine serum (10%), penicillin (100 U/mL) and streptomycin (0.1 mg/mL)) supplemented with 0.25 mg/mL of Geneticin were inoculated into a 96-well plate at a density of 4.0×10^4 cells/0.1 mL per well. On the next day, the medium was removed and washed twice with 0.1 mL of wash buffer [0.1% bovine serum albumin (BSA), 20 mmol/L 4-(2-hydroxyethyl)-1-piperazineethane sulphonic acid (HEPES)-containing Hank's balanced salt solution (HBSS)]. An assay buffer [[…] 3-isobutyl-1-methylxanthine (IBMX), 0.1% BSA, 20 mmol/L HEPES-containing HBSS] was added to the wells at 0.06 mL per well and the plate was incubated for 15 minutes under the conditions of 5% carbon dioxide and 37° C. Thereafter, an assay buffer containing a test compound at a concentration twice as high as the final concentration and 0.02 mmol/L of forskolin was added to wells at 0.06 mL per well and the plate was incubated for 30 minutes under the conditions of 5% carbon dioxide and 37° C. Thereafter, the Assay/Lysis buffer included in the cAMP-Screen® kit (available from Applied Biosystems) was added to wells at 0.12 mL per well and the plate was incubated for 30 minutes under the conditions of 5% carbon dioxide and 37° C. The concentration of cAMP in samples were measured by ELISA according to the instruction of the kit.

[1] = Evaluation of cytotoxicity using cultured human hepatocytes (intracellular ATP); assay type: cell-based; conditions: read-out: IC50 of cytotoxicity (concentration at which 50% of the luminescence is suppressed)
Experimental: Evaluation of Cytotoxicity Using Cultured Human Hepatocytes
Frozen adhesive human hepatocytes were thawed, suspended in a hepatocellular medium (HCM) purchased from Lonza and inoculated to a 96-well plate coated with collagen. The culture medium of the hepatocytes cultured overnight in an incubator (5% carbon dioxide, 95% air, 37° C.) was exchanged to the medium containing a test compound at a concentration of 0, 12.5, 25, 50, 100, 200 or 400 (×10^−6 mol/L) and the cells were further cultured for 24 hours. Cytotoxicity was evaluated by measuring the intracellular ATP concentration. Specifically, using the Promega Celltiter-Glo luminescent assay kit available from Promega, cells were lysed in the assay buffer included in the kit and the concentration of ATP released from the cells was measured according to the luminescence resulting from luciferin-luciferase enzyme activity. The luminescence was measured on the SpectraMax plate reader from Molecular Devices. The extent of cytotoxicity of a test compound is represented by the concentration (IC50) of the compound at which 50% of the luminescence is suppressed.

[2] = system: growth hormone (GH) secretion; test: Evaluation of suppression of growth hormone (GH) secretion using rats (GHRH-induced); assay type: in vivo; conditions: Rattus norvegicus, Procedure (B): oral administration 8 hours beforehand, read-out: percentage of suppression of GH secretion
Experimental: Evaluation of Suppression of Growth Hormone (GH) Secretion Using Rats
[Procedure (A): Administration of a Test Compound 30 Minutes Beforehand]
A medium (distilled water (Otsuka distilled water, Otsuka Pharmaceutical Factory, […]) IGS rats (Charles River Laboratories Japan, Inc.)) and after 27 minutes, the animals were administered with 50 mg/kg of pentobarbital sodium (Somnopentyl, Kyoritsu Seiyaku Corporation) via the tail vein for anaesthesia. Three minutes after administration of pentobarbital sodium, the rats were administered with 0.01 mg/kg of growth hormone-releasing hormone (GHRH, Bachem) via the tail vein to induce GH secretion. In order to measure the blood GH concentration, 0.2 mL of blood was collected through the jugular vein at 5 minutes after administration of GHRH. The collected blood was centrifuged at 4° C., 13,000×g for 5 minutes to obtain plasma. The blood GH concentration was measured by using Rat/Mouse Growth Hormone ELISA (Millipore) following the instruction of the kit. The percentage (%) of suppression of GH secretion was determined by using the obtained blood GH concentration and the equation {[suppression (%) of GH secretion]=([blood GH concentration of the group administered with the medium]−[blood GH concentration of the group administered with a test compound])/[blood GH concentration of the group administered with the medium]×100}. In the equation, the group administered with the medium represents the group of animals administered with the medium and the group administered with a test compound represents the group of animals administered with a test compound dissolved in the medium.
[Procedure (B): Administration of a Test Compound 8 Hours Beforehand]
A medium (distilled water (Otsuka distilled water, Otsuka Pharmaceutical Factory, […]) IGS rats (Charles River Laboratories Japan, Inc.)) and after 7 hours and 57 minutes, the animals were administered with 50 mg/kg of pentobarbital sodium (Somnopentyl, Kyoritsu Seiyaku Corporation) via the tail vein for anaesthesia. Three minutes after administration of pentobarbital sodium, the rats were administered with 0.01 mg/kg of growth hormone-releasing hormone (GHRH, Bachem) via the tail vein to induce GH secretion. The rest of the procedure is the same as in [Procedure (A)] described above.

[3] = Human hepatic microsome stability test; assay type: in vitro ADME; conditions: human hepatic microsomes 1 mg/mL; 60 minutes; test compound 0.001 mmol/L; 37° C.
Experimental: Human Hepatic Microsome Stability Test
To a reaction vessel heated to 37° C. in a water bath, 0.392 mL of phosphate buffer (0.1 mol/L, pH 7.4) containing human hepatic microsomes (1 mg/mL, Xenotech) and NADPH-Co-factor (NADP+1.3 mmol/L, BD-Bioscience) was added and pre-incubated for 5 minutes. A 50% acetonitrile solution (0.008 mL) containing 0.05 mmol/L of a test compound was added thereto to initiate the enzyme reaction (final concentration of the test compound: 0.001 mmol/L). Immediately after initiation of the reaction and at 60 minutes thereafter, 0.050 mL of the reaction solution was respectively collected, which was immediately added to an acetonitrile solution (0.2 mL) containing an internal standard (45 nmol/L, 1-[3-(3,5-dimethylphenyl)-4-quinolinyl]-4-piperidineamine) to terminate the enzyme reaction.
The residual rate (%), which is indicative of stability of the test compound, was calculated using the ratio of peak areas between the test compound and the internal substance determined by LC/MS/MS (TSQ Quantum Discovery MAX, Thermo) analysis of the sample thus prepared by the above procedures followed by filtration, and the equation: {[residual rate (%)=[peak area of a test compound in a sample at 60 minutes after initiation of the reaction/peak area of the internal standard]/[peak area of the test compound in the sample immediately after initiation of the reaction/peak area of the internal standard]×100}.

SMILES	pEC50 (human SSTR2)	residual rate [3]	IC50 at 24 h [1]	inhibition in vivo at 1 mg/kg [2]	inhibition in vivo at 3 mg/kg ([2]; 3 mg/kg)
NC1CCN(c2c(-c3ccc(C(F)(F)F)cc3)cncc2-c2cc(F)cc(Cl)c2)CC1 [Example 2, 1-{3-(3-chloro-5-fluorophenyl)-5-[4-(trifluoromethyl)phenyl]-4-pyridinyl}-4-piperidineamine]	10.08	88.0%	10 µM	93%	
CCNC1CCN(c2c(-c3ccc(C4(C#N)CC4)cc3)cncc2-c2cc(Cl)cc(Cl)c2)CC1 [Example 5(2), 1-(4-{5-(3,5-dichlorophenyl)-4-[4-(ethylamino)-1-piperidinyl]-3-pyridinyl}phenyl)cyclopropanecarbonitrile]	10.44	80.3%	22 µM	90%	
COc1ccc(F)cc1C(=O)Nc1cncc(-c2cc(Cl)cc(Cl)c2)c1N1CCC(N)CC1 [Example 7(1), N-[4-(4-amino-1-piperidinyl)-5-(3,5-dichlorophenyl)-3-pyridinyl]-5-fluoro-2-methoxybenzamide]	9.59	92.9%	34 µM		88%
CCNC1CCN(c2c(-c3ccc(C(F)(F)F)cc3)cncc2-c2cc(Cl)cc(Cl)c2)CC1 [Example 5(1), 1-{3-(3,5-dichlorophenyl)-5-[4-(trifluoromethyl)phenyl]-4-pyridinyl}-N-ethyl-4-piperidineamine]	10.35	57.6%	18 µM	90%	
CCNC1CCN(c2c(/C=C(\C)c3cccc(C#N)c3)cncc2-c2cc(Cl)cc(Cl)c2)CC1 [Example 5, 3-[(1E)-1-{5-(3,5-dichlorophenyl)-4-[4-(ethylamino)-1-piperidinyl]-3-pyridinyl}-1-propen-2-yl]benzonitrile]	10.33	79.7%	18 µM	90%	
NC1CCN(c2c(/C=C/c3cccc(Cl)c3)cncc2-c2cc(F)cc(Cl)c2)CC1 [Example 3(1), 1-{3-(3-chloro-5-fluorophenyl)-5-[(E)-2-(3-chlorophenyl)vinyl]-4-pyridinyl}-4-piperidineamine]	9.96	50.3%	19 µM	86%	
CCNC1CCN(c2c(/C=C/c3cccc(C#N)c3)cncc2-c2cc(Cl)cc(Cl)c2)CC1 [Example 5(6), 3-[(E)-2-{5-(3,5-dichlorophenyl)-4-[4-(ethylamino)-1-piperidinyl]-3-pyridinyl}vinyl]benzonitrile]	10.32	83.9%	18 µM	89%	
N#CC1(c2ccc(-c3cncc(-c4cc(Cl)cc(Cl)c4)c3N3CC[C@@H]4NCCO[C@H]4C3)cc2)CC1 [Example 2(5), 1-(4-{5-(3,5-dichlorophenyl)-4-[(4aS,8aS)-octahydro-6H-pyrido[3,4-b][1,4]oxazin-6-yl]-3-pyridinyl}phenyl)cyclopropanecarbonitrile]	10.30	53.1%	19 µM	85%	

These reach a higher pEC50 (human SSTR2). Values come first.

pEC50 (human SSTR2)	residual rate [3]	SMILES	IC50 at 24 h [1]	inhibition in vivo at 1 mg/kg [2]	inhibition in vivo at 3 mg/kg ([2]; 3 mg/kg)
10.51	94.6%	NC1CCN(c2c(-c3ccc(C(F)(F)F)cc3)cncc2-c2cc(Cl)cc(Cl)c2)CC1 [Example 1, 1-{3-(3,5-dichlorophenyl)-5-[4-(trifluoromethyl)phenyl]-4-pyridinyl}-4-piperidineamine]	19 µM	93%	
10.55	67.7%	CCNC1CCN(c2c(-c3ccc(OC(F)F)cc3)cncc2-c2cc(Cl)cc(Cl)c2)CC1 [Example 5(3), 1-{3-(3,5-dichlorophenyl)-5-[4-(difluoromethoxy)phenyl]-4-pyridinyl}-N-ethyl-4-piperidineamine]	10 µM	96%	
10.68	74.9%	CCNC1CCN(c2c(-c3ccc(C(C)(C)C#N)cc3)cncc2-c2cc(Cl)cc(Cl)c2)CC1 [Example 5(4), 2-(4-{5-(3,5-dichlorophenyl)-4-[4-(ethylamino)-1-piperidinyl]-3-pyridinyl}phenyl)-2-methylpropanenitrile]	17 µM	89%	
